“Also recorded” adds a separate entry of the source.
Columns and labels:
[1] = molecular target: T1, NK-1 receptor (Meriones unguiculatus, UniProt Q5DUB1); experiment: Gerbil scratching model (scratching induced by NK-1 agonist GR73632); type: in vivo, Mongolian gerbil; settings: for attenuation of scratching induced in gerbils by the NK-1 selective agonist GR73632: topical application 1% w/v (20 μL) 20 min before i.d. GR73632 100 nmol/100 μL, male Mongolian gerbils
T1 construct: animals (male Mongolian gerbils) were shaved on the rostral part of the back; from tissue; host or cells: living male Mongolian gerbils (skin, topical application; in vivo)
T1 sequence (Q5DUB1 whole entry): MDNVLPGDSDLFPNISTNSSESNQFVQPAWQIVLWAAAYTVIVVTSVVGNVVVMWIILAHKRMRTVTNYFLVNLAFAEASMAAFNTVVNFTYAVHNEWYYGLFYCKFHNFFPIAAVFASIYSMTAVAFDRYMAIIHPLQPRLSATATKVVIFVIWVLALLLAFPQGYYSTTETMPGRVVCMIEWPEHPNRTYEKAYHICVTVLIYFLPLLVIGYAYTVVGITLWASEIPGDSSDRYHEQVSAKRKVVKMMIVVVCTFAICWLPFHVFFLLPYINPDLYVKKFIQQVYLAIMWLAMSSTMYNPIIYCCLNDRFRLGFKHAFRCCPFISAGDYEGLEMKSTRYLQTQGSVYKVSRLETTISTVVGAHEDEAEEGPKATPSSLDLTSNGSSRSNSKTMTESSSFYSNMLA
Procedure: The gerbil was selected for this study as this species shares higher homology to the human in terms of NK-1 receptor pharmacology compared to other laboratory rodents.
Each test compound was tested on 11 or 12 animals. On the day of the test, the gerbils (four animals simultaneously) were put into a Plexiglas cage (42×42×35 cm) composed of four cells (20.5×20.5×35 cm) for 10 minutes of habituation. After this period, the test compound (1% w/v in acetone and transcutol 9:1) was topically applied on the shaven area in a volume of 20 μL. Topical application was performed using a Hamilton syringe (25 μL) and a square stencil of impermeable paper (1.5×1.5 cm) to allow application over a defined skin area (2.25 cm2). […] I.d. injection was made with a Hamilton syringe (250 μL) connected to a 27 gauge needle. Immediately after injection, animals were placed back into the same cell of the Plexiglas cage they were previously habituated in and their behaviour was recorded on video remotely for 30 minutes. The experimenter remained out of the observation room in order to minimize disturbance to the animals. The video was subsequently analysed to assess scratching behaviour. Scratching of the injection site by the hind paws was counted while scratching of other sites such as ears and snout were disregarded. Scratching episodes were measured over 10-minutes time intervals, for a total of 30 minutes.
Results were expressed as mean value±SEM. Statistical analysis was performed by a one-way ANOVA followed by LSD post hoc test with the exception of time-course analysis for a repeated-measure ANOVA followed by LSD post hoc test was performed.

[2] = Hepatic intrinsic clearance following incubation in human liver microsomes; type: in vitro ADME; settings: NADPH regenerating system, 0-30 min, 37 °C
How it was run: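 Compounds (from 50 µM working solution) are incubated with human liver microsomes diluted to 0.55 mg/mL in phosphate pH 7.4, with NADPH regeneration at 37 °C and sampling at 0–30 min. LC-MS/MS parent depletion gives kobs, scaled to mL/min/g liver. Eh uses 25.7 g liver/kg and 20.7 mL/min/kg blood flow.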

[3] = molecular target: T2, NK1 receptor (Homo sapiens, UniProt P25103); experiment: NK1 receptor mediated intracellular [Ca2+] mobilization in U251 MG cells using FLIPR; type: cell-based; settings: antagonist potency against Substance P (EC80), normalized to 100 nM Aprepitant, read-out: U251MG (FLIPR pIC50) (converted)
T2 construct: Measurement of NK1 Receptor Mediated Intracellular [Ca^2+]; Mobilization in U251 MG Cells Using FLIPR; endogenous in cells; host or cells: U251 MG cells
T2 sequence (P25103 whole entry): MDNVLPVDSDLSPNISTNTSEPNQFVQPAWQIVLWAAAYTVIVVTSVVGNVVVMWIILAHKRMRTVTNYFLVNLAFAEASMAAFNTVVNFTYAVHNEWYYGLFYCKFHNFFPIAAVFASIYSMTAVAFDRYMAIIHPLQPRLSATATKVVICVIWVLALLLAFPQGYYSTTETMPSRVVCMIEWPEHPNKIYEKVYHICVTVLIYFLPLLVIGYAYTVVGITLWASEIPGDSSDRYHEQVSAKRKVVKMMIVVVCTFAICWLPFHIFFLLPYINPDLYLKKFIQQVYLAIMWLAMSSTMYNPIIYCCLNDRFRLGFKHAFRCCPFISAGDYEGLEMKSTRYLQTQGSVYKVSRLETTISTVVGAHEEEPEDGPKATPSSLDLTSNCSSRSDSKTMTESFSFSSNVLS
How it was run: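 Fluo-4-loaded U251 MG cells were preincubated with compound (0.5% DMSO final), with any agonist effect read for 5 min, then 10 min more at 37 °C before Substance P at EC80. Peak FLIPR fluorescence change was read, and IC50 came from a four-parameter fit as the midpoint between fitted top and bottom.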

Compound	induction of scratching (number of scratches) ([1]; intradermal injection 100 nmol/100 μL, 30 min time course, repeated-measure ANOVA, gerbil)	Human in vitro Clint (mL/min/g liver) [2] [mL/min/g liver]	attenuation of scratching induced in gerbils by the NK-1 selective agonist GR73632 [1]	IC50 [3] [pM]
5-Aminopentanoyl-L-phenylalanyl-L-phenylalanyl-L-prolyl-L-(N-methyl)leucyl-L-methioninamide [GR73632, reference compound]	induced an increase in the number of scratches; also recorded: induced an increase of scratching			
Cc1ccccc1[C@H]1[C@@H]2CCC(=O)N2CCN1C(=O)N(C)[C@H](C)c1cc(C(F)(F)F)cc(C(F)(F)F)c1 (single isomer, unassigned) [Compound 9]		4.5	able to attenuate the scratching	34.7
Cc1ccccc1C1C2CC(CN3CCOCC3)C(=O)N2CCN1C(=O)N(C)Cc1cc(C(F)(F)F)cc(C(F)(F)F)c1 (single isomer, unassigned) [Compound 38]		3.3	not able to attenuate the scratching	195
Cc1ccccc1C1C2CC(CCO)(CCO)C(=O)N2CCN1C(=O)N(C)Cc1cc(C(F)(F)F)cc(C(F)(F)F)c1 (single isomer, unassigned) [Compound 44, N-{[3,5-bis(trifluoromethyl)phenyl]methyl}-7,7-bis(2-hydroxyethyl)-N-methyl-1-(2-methylphenyl)-6-oxo-octahydropyrrolo[1,2-a]piperazine-2-carboxamide]		2.6	able to attenuate the scratching	69.2
Cc1ccccc1C1C2CC(CCO)(CCO)C(=O)N2CCN1C(=O)N(C)[C@H](C)c1cc(C(F)(F)F)cc(C(F)(F)F)c1 (single isomer, unassigned) [Compound 54]		9.5	able to attenuate the scratching	120
Cc1ccccc1C1C2CC(CO)C(=O)N2CCN1C(=O)N(C)[C@H](C)c1cc(C(F)(F)F)cc(C(F)(F)F)c1 (single isomer, unassigned) [Compound 55]		2.4	not able to attenuate the scratching	151
Cc1ccccc1C1C2CC(CCO)(CCO)CN2CCN1C(=O)N(C)[C@H](C)c1cc(C(F)(F)F)cc(C(F)(F)F)c1 (single isomer, unassigned) [Compound 60]		6.1	able to attenuate the scratching	339
